Legend:
[1] = test system: SREBP1/SREBP2 target genes; experiment: Quantitative PCR of SREBP target genes in Huh7 cells; assay type: cell-based, human; details: peptide 15 μM, IGF1 100 ng/mL 10 h, qPCR, n = 3
Protocol: Figure 1 The Insig1/2 loop 1 peptide binds to S90‐phosphorylated PCK1 and blocks PCK1‐mediated SREBP activation and tumor cell proliferation. Immunoblotting analyses were performed using the indicated antibodies; representative results from three independent experiments are shown (IP, immunoprecipitation; WB, western blot). a) Huh7 cells expressing various Insig1 (top) or Insig2 (bottom) truncation mutants were treated with or without IGF1 (100 ng mL^−1) for 1 h. b,c) Biolayer interferometry assays (Sartorius Octet) were employed to measure the binding affinity of Insig1/2 loop 1 peptide to GST‐PCK1 or GST‐PCK1 pS90 proteins. Data represent three independent experiments. d) Flag‐PCK1‐expressing Huh7 cells were pretreated with Insig1/2 loop 1 peptide (15 µM) for 1 h before IGF1 (100 ng mL^−1) stimulation. e) Huh7 cells were pretreated with low (7.5 µM) or high (15 µM) concentrations of Insig1/2 loop 1 peptide for 1 h before IGF1 (100 ng mL^−1) stimulation. f) Huh7 cells transiently transfected with β‐galactosidase and SRE‐driven luciferase reporter vectors were pretreated with Insig1/2 loop 1 peptide (15 µM) for 1 h, followed by stimulation with or without IGF1 (100 ng mL^−1) for 14 h. SRE luciferase activity was normalized to β‐galactosidase activity. Data represent the mean ± SD (n = 3). Statistical significance was determined by one‐way analysis of variance (ANOVA). g) Following pretreatment with Insig1/2 loop 1 peptide (15 µM) and IGF1 stimulation (100 ng mL^−1, 8 h), Huh7 cells were subjected to immunofluorescence analysis (scale bar: 10 µm). h) Quantitative PCR analysis of SREBP1 target gene GPAM in Huh7 cells pretreated with Insig1/2 loop 1 peptide (15 µM) and stimulated with IGF1 (100 ng mL^−1) for 10 h. Data represent the mean ± SD (n = 3). Statistical significance was determined by one‐way analysis of variance (ANOVA). i) Quantitative PCR analysis of SREBP1 target gene FASN in Huh7 cells pretreated with Insig1/2 loop 1 peptide (15 µM) and stimulated with IGF1 (100 ng mL^−1) for 10 h. Data represent the mean ± SD (n = 3). Statistical significance was determined by one‐way analysis of variance (ANOVA). j) Intracellular triglyceride (TG) content was quantified in Huh7 cells pretreated with Insig1/2 loop 1 peptide (25 µM) and stimulated with IGF1 (100 ng mL^−1) for 24 h. […] Statistical significance was determined by one‐way analysis of variance (ANOVA). k) Cell proliferation was assessed by automated cell counting after 72 h of IGF1 stimulation (100 ng mL^−1) in Huh7 cells pretreated with Insig1/2 loop 1 peptide (25 µM) for 1 h. […] Statistical significance was determined by one‐way analysis of variance (ANOVA). l) FLAG‐Insig1, Flag‐Insig1 S207A or FLAG‐ Insig1 S207D was expressed in Huh7 cells with depletion of Insig1 by expressing Insig1 shRNA. […]

[2] = test system: Hep3B cells; experiment: Triglyceride (TG) detection assay, Hep3B; assay type: cell-based, human; details: peptide 25 μM, IGF1 100 ng/mL 24 h, n = 3
Protocol: Cells were harvested and processed for triglyceride (TG) quantification using the Amplex Red Triglyceride Assay Kit (Beyotime, Catalog No. S0129S) according to the manufacturer's instructions. Briefly, collect 1 million cells and add 200 µL of isopropanol. Centrifuge at 12 000 × g for 3–5 min at 4 °C, and collect the supernatant for subsequent analysis. Dilute the supernatant tenfold with assay buffer, and then add 50 µL of the diluted sample to a 96‐well black plate, add 2 µL of lipase, and mix thoroughly. Incubate at 37 °C for 20 min. Then, add 50 µL of the triglyceride detection working solution and mix well, incubate at 37 °C for 60 min in the dark. Set the excitation wavelength to 560 nm and the emission wavelength to 590 nm to measure the fluorescence intensity.
f) Intracellular triglyceride (TG) content was quantified in Hep3B cells pretreated with Insig1/2 loop 1 peptide (25 μM) and stimulated with IGF1 (100 ng ml⁻¹) for 24 h.

Question: What does the source list for “RKKRRQRRRLYPCIDSHLGEPHKFKRE [Insig1/2 loop 1 peptide]”?
Answer: SREBP2-mediated expression of HMGCS1 [1]: suppressed; SREBP2-mediated expression of LDLR [1]: suppressed; expression of FASN [1]: markedly inhibited; expression of GPAM [1]: markedly inhibited; IGF1-induced increase in triglycerides (TGs) [2]: reduced

— paper PMC12677653, “Inhibition of Tumor Lipogenesis and Growth by Peptide‐Based Targeting of SREBP Activation” (Advanced Science, 2025)
